Laboratory results taken from patent US20250340538A1, “IMIDAZOLONE DERIVATIVES AS INHIBITORS OF PROTEIN KINASES IN PARTICULAR DYRK1A, CLK1 AND/OR CLK4” (PERHA PHARMACEUTICALS, priority 2021, published 2025).
Where a name gives a salt, the structure may show the parent alone.

Columns and labels:
CLK1 = target: T1, CLK1 (Homo sapiens, UniProt P49759); test: Radiometric protein kinase assay (33PanQinase Activity Assay), CLK1; type: biochemical; details: class by IC50 on CLK1, from dose-response curves; read-out: Potency Class CLK1
T1 construct: GST-fusion or His-tag (not specified per kinase); purchased ProQinase GmbH; host or cells: Sf9 insect cells or E. coli (not specified per kinase)
T1 sequence (P49759 whole entry, the tested form may be a part): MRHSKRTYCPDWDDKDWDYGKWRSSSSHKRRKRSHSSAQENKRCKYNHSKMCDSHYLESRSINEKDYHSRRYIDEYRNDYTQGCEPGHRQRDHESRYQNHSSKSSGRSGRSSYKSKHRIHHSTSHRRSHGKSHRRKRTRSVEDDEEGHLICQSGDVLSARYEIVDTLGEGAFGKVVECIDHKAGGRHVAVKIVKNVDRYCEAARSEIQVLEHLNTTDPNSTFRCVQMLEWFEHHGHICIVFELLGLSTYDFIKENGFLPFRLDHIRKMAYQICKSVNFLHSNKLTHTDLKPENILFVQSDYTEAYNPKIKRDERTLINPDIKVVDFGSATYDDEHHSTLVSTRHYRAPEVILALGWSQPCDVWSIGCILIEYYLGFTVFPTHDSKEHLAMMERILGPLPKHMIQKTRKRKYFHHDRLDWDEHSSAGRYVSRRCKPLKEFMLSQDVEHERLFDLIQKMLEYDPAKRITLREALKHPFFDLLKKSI
Description: Assays were performed by ProQinase GmbH (Engesserstr. 4, D-79108 Freiburg, Germany. www.proqinase.com). The IC50 profile of all compounds was determined using 12 protein kinases (CDK2/cyclin E, CK1ε, CLK1, 2, 3, 4, DYRK1A, 1B, 2, 3, 4, GSK3β).
(§1) The compounds were provided as […] in 100% DMSO. Prior to testing, the 1 μM stock solutions were subjected to a serial, semi-logarithmic dilution using 100% DMSO as a solvent. […] In the process, 90 μl H2O were added to each well of each compound dilution plate. To minimize potential precipitation, the H2O was added to each plate only a few minutes before the transfer of the compound solutions into the assay plates. The plate was shaken thoroughly, resulting in a compound dilution plate/10% DMSO.
(§2) For the assays (see below), 5 μL solution from each well of the compound dilution plates/10% DMSO were transferred into the assay plates. The final volume of the assay was 50 μL. All compounds were tested at 10 final assay concentrations in the range from 10 μM to 30 nM. The final DMSO concentration in the reaction cocktails was 1% in all cases.
(§3) All protein kinases provided by ProQinase were expressed in Sf9 insect cells or in E. coli as recombinant GST-fusion proteins or His-tagged proteins, either as full-length or enzymatically active fragments. All kinases were produced from human cDNAs and purified by either GSH-affinity chromatography or immobilized metal. Affinity tags were removed from a number of kinases during purification. The purity of the protein kinases was examined by SDS-PAGE/Coomassie staining, the identity was checked by mass spectroscopy.
(§4) A radiometric protein kinase assay (33PanQinase® Activity Assay) was used for measuring the kinase activity of the 12 protein kinases. All kinase assays were performed in 96-well FlashPlates™ from PerkinElmer (Boston, MA, USA) in a 50 μL reaction volume. The reaction cocktail was pipetted in four steps in the following order: • 25 μL of assay buffer (standard buffer/[γ-^33P]-ATP), • 10 μL of ATP solution (in H2O), • 5 μL of test compound (in 10% DMSO), • 10 μL of enzyme/substrate mixture.
(§5) The reaction cocktails were incubated at 30° C. for 60 minutes. The reaction was stopped with 50 μL of 2% (v/v) H3PO4, plates were aspirated and washed two times with 200 μL 0.9% (w/v) NaCl. Incorporation of ^33Pi was determined with a microplate scintillation counter (Microbeta, Wallac). The IC50 values for all compounds were calculated from the dose response curves
As a parameter for assay quality, the Z′-factor (Zhang et al., J. Biomol. Screen. 2: 67-73, 1999) for the low and high controls of each assay plate (n=8) was used. ProQinase's criterion for repetition of an assay plate is a Z′-factor below 0.4 (Iversen et al., J. Biomol. Screen. 3: 247-252, 2006).

DYRK1A = target: T2, DYRK1A (Homo sapiens, UniProt Q13627); test: Radiometric protein kinase assay (33PanQinase Activity Assay), DYRK1A; type: biochemical; details: for IC50: class by IC50 on DYRK1A, from dose-response curves, read-out: Potency Class DYRK1A; for Selectivity Class DYRK1A vs. CLK1: ratio of IC50 on CLK1 over IC50 on DYRK1A; for Selectivity Class DYRK1A vs. DYRK1B: ratio of IC50 on DYRK1B over IC50 on DYRK1A
T2 construct: GST-fusion or His-tag (not specified per kinase); purchased ProQinase GmbH; host or cells: Sf9 insect cells or E. coli (not specified per kinase)
Description: The IC50 profile of all compounds was determined using 12 protein kinases (CDK2/cyclin E, CK1ε, CLK1, 2, 3, 4, DYRK1A, 1B, 2, 3, 4, GSK3β).
as §1, §2, §3, §4, §5

SMILES | IC50 (CLK1) [µM] | IC50 (DYRK1A) [µM] | Selectivity Class DYRK1A vs. CLK1 (DYRK1A) | Selectivity Class DYRK1A vs. DYRK1B (DYRK1A)
O=C1NC(N[C@H]2c3ccccc3C[C@@H]2O)=N/C1=C\c1ccc2nccnc2c1 [Compound 23, (4Z)-2-[[(1S,2S)-2-hydroxyindan-1-yl]amino]-4-(quinoxalin-6-ylmethylene)-1H-imidazol-5-one] | > 0.05 | 0.01 to 0.025 | II (ratio between 2 and 10 fold) | II (ratio between 2 and 10 fold)
CN1C(=O)/C(=C/c2ccc3ncncc3c2)N=C1NC1CCCCC1 [Compound 88, (5Z)-2-(Cyclohexylamino)-3-methyl-5-(quinazolin-6-ylmethylene)imidazol-4-one] | > 0.05 | > 0.05 | III (ratio between 0.5 and 2 fold) | III (ratio between 0.5 and 2 fold)
O=C1NC(NC23CC4CC(CC(C4)C2)C3)=N/C1=C\c1ccc2ncncc2c1 [Compound 68, (4Z)-2-(1-adamantylamino)-4-(quinazolin-6-ylmethylene)-1H-imidazol-5-one] | > 0.05 | > 0.05 | III (ratio between 0.5 and 2 fold) | II (ratio between 2 and 10 fold)
O=C1NC(NC2CCCCCC2)=N/C1=C\c1ccc2ncncc2c1 [Compound 77, (4Z)-2-(cycloheptylamino)-4-(quinazolin-6-ylmethylene)-1H-imidazol-5-one] | > 0.05 | > 0.05 | II (ratio between 2 and 10 fold) | II (ratio between 2 and 10 fold)
O=C1NC(NC2CCCCOC2)=N/C1=C\c1ccc2nccnc2c1 (racemic) [Compound 41, (4Z)-2-(Oxepan-3-ylamino)-4-(quinoxalin-6-ylmethylene)-1H-imidazol-5-one] | > 0.05 | > 0.05 | III (ratio between 0.5 and 2 fold) | II (ratio between 2 and 10 fold)
COC[C@H](NC1=N/C(=C\c2ccc3nnccc3c2)C(=O)N1)c1ccccc1 [Compound 72, (4Z)-4-(cinnolin-6-ylmethylene)-2-[[(1R)-2-methoxy-1-phenyl-ethyl]amino]-1H-imidazol-5-one] | > 0.05 | > 0.05 | III (ratio between 0.5 and 2 fold) | III (ratio between 0.5 and 2 fold)
O=C1NC(NCC2CCOCC2)=N/C1=C\c1ccc2nccnc2c1 [Compound 32, (4Z)-4-(quinoxalin-6-ylmethylene)-2-(tetrahydropyran-4-ylmethylamino)-1H-imidazol-5-one] | > 0.05 | > 0.05 | III (ratio between 0.5 and 2 fold) | II (ratio between 2 and 10 fold)
NC[C@@H](NC1=N/C(=C\c2ccc3nccnc3c2)C(=O)N1)c1ccccc1 [Compound 29, (4Z)-2-[[(1S)-2-Amino-1-phenyl-ethyl]amino]-4-(quinoxalin-6-ylmethylene)-1H-imidazol-5-one dihydrochloride] | > 0.05 | 0.025 to 0.05 | III (ratio between 0.5 and 2 fold) | II (ratio between 2 and 10 fold)
CC(C)C[C@H](COCc1ccccc1)NC1=N/C(=C\c2ccc3nccnc3c2)C(=O)N1 [Compound 12, (4Z)-2-[[(1R)-1-(benzyloxymethyl)-3-methyl-butyl]amino]-4-(quinoxalin-6-ylmethylene)-1H-imidazol-5-one] | > 0.05 | > 0.05 | I (ratio of IC50 on CLK1 or DYRK1B over IC50 on DYRK1A ≥10 fold (most DYRK1A-selective compounds)) | II (ratio between 2 and 10 fold)
O=C1NC(NC2CCCCC2)=N/C1=C\c1ccc2ncncc2c1 [Compound 76, (4Z)-2-(cyclohexylamino)-4-(quinazolin-6-ylmethylene)-1H-imidazol-5-one] | > 0.05 | > 0.05 | III (ratio between 0.5 and 2 fold) | II (ratio between 2 and 10 fold)
O=C1NC(NC2CCCCC2)=N/C1=C\c1ccc2cnccc2c1 [Compound 75, (4Z)-2-(Cyclohexylamino)-4-(6-isoquinolylmethylene)-1H-imidazol-5-one] | > 0.05 | > 0.05 | III (ratio between 0.5 and 2 fold) | II (ratio between 2 and 10 fold)
CO[C@H]1CCCC[C@@H](NC2=N/C(=C\c3ccc4nccnc4c3)C(=O)N2)C1 (racemic) [Compound 8, (+)-(4Z)-2-[[cis-3-methoxycycloheptyl]amino]-4-(quinoxalin-6-ylmethylene)-1H-imidazol-5-one] | > 0.05 |  |  | 
Cn1ccc(NC2=N/C(=C\c3ccc4ncccc4c3)C(=O)N2)n1 [Compound 54, (4Z)-2-[(1-methylpyrazol-3-yl)amino]-4-(6-quinolylmethylene)-1H-imidazol-5-one] | > 0.05 | > 0.05 | III (ratio between 0.5 and 2 fold) | II (ratio between 2 and 10 fold)
O=C1NC(NC2CCCCCC2)=N/C1=C\c1ccc2cnccc2c1 [Compound 57, (4Z)-2-(cycloheptylamino)-4-(6-isoquinolylmethylene)-1H-imidazol-5-one] | > 0.05 | > 0.05 | III (ratio between 0.5 and 2 fold) | III (ratio between 0.5 and 2 fold)
O=C1NC(N[C@@H]2CCC[C@@H](O)CC2)=N/C1=C\c1ccc2nccnc2c1 (racemic) [Compound 6, (±)-(4Z)-2-[[trans-4-hydroxycycloheptyl]amino]-4-(quinoxalin-6-ylmethylene)-1H-imidazol-5-one] | > 0.05 |  |  | 
COC[C@@H](CC(C)C)NC1=N/C(=C\c2ccc3nccnc3c2)C(=O)N1 [Compound 10, (4Z)-2-[[(1R)-1-(methoxymethyl)-3-methyl-butyl]amino]-4-(quinoxalin-6-ylmethylene)-1H-imidazol-5-one] | > 0.05 |  |  | 
O=C1NC(N[C@@H](CO)c2ccccc2)=N/C1=C\c1ccc2nccnc2c1 [Compound 24, (4Z)-2-[[(1R)-2-hydroxy-1-phenyl-ethyl]amino]-4-(quinoxalin-6-ylmethylene)-1H-imidazol-5-one] | 0.025 to 0.05 |  |  | 
O=C1NC(NC2CCCCCC2)=N/C1=C\c1ccc2nccnc2c1 [Compound 1, (4Z)-2-(cycloheptylamino)-4-(quinoxalin-6-ylmethylene)-1H-imidazol-5-one] | > 0.05 |  |  | 
O=C1NC(NC2CCCCC2)=N/C1=C\c1ccc2nccnc2c1 [Compound 74, (4Z)-2-(Cyclohexylamino)-4-(quinoxalin-6-ylmethylene)-1H-imidazol-5-one] | > 0.05 |  |  | 
O=C1NC(NC2CCCCCCC2)=N/C1=C\c1ccc2nccnc2c1 [Compound 2, (4Z)-2-(cyclooctylamino)-4-(quinoxalin-6-ylmethylene)-1H-imidazol-5-one] | > 0.05 |  |  | 
CC(C)C[C@H](COCc1ccc(F)cc1)NC1=N/C(=C\c2ccc3nccnc3c2)C(=O)N1 [Compound 13, (4Z)-2-[[(1R)-1-[(4-fluorophenyl)methoxymethyl]-3-methyl-butyl]amino]-4-(quinoxalin-6-ylmethylene)-1H-imidazol-5-one] | > 0.05 |  |  | 
O=C1NC(N[C@H](CO)c2ccccc2)=N/C1=C\c1ccc2nccnc2c1 [Compound 25, (4Z)-2-[[(1S)-2-Hydroxy-1-phenyl-ethyl]amino]-4-(quinoxalin-6-ylmethylene)-1H-imidazol-5-one] | > 0.05 |  |  | 
